Source: paper PMC5814754, “Quantitative, Wide-Spectrum Kinase Profiling in Live Cells for Assessing the Effect of Cellular ATP on Target Engagement” (Cell Chemical Biology, 2018)

Tests used:
Test in all cases: NanoBRET single-dose fractional occupancy profiling of kinase/Nluc library in live HEK293 cells (Table S1)
Format in all cases: binding
Design in all cases: Occupancy, % Replicate 1 / Occupancy, % Replicate 2: unit of the concentration uncertain
178 full-length kinases [1] = biological target: 178 full-length kinases (Homo sapiens, UniProt P19784); conditions: CSNK2A2, Nluc C, probe 5 at 1 (unit uncertain)
Chain of 178 full-length kinases (Homo sapiens, UniProt P19784) (P19784 whole entry): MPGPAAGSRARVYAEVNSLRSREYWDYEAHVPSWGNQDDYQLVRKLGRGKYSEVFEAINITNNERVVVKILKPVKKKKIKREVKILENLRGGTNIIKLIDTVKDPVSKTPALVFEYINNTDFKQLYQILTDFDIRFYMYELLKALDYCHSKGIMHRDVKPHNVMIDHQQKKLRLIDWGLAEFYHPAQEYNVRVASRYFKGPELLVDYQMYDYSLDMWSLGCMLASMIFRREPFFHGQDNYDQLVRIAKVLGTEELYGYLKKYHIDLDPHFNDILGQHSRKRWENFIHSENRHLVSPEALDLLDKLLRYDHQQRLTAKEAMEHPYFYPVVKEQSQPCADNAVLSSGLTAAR

178 full-length kinases [2] = biological target: 178 full-length kinases (Homo sapiens, UniProt P51817); conditions: PRKX, Nluc C, probe 5 at 1 (unit uncertain)
Chain of 178 full-length kinases (Homo sapiens, UniProt P51817) (P51817 whole entry): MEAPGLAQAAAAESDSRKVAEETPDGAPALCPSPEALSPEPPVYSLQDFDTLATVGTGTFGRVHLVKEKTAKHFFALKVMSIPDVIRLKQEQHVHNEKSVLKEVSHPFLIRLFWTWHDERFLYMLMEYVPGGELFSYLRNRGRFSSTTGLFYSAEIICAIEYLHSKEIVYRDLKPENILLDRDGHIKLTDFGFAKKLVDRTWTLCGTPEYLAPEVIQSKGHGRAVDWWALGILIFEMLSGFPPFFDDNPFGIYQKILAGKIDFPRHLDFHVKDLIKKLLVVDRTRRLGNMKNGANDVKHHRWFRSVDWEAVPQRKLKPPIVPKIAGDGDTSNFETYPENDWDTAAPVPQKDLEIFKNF

178 full-length kinases [3] = biological target: 178 full-length kinases (Homo sapiens, UniProt Q8WU08); conditions: STK32A (NP_001106195), Nluc orientation N, probe 5 at 1 (unit uncertain); replicate 2
178 full-length kinases [4] = biological target: 178 full-length kinases (Homo sapiens, UniProt O94768); conditions: STK17B (NP_004217), Nluc orientation C, probe 1 at 1 (unit uncertain)
Chain of 178 full-length kinases (Homo sapiens, UniProt O94768) (O94768 whole entry): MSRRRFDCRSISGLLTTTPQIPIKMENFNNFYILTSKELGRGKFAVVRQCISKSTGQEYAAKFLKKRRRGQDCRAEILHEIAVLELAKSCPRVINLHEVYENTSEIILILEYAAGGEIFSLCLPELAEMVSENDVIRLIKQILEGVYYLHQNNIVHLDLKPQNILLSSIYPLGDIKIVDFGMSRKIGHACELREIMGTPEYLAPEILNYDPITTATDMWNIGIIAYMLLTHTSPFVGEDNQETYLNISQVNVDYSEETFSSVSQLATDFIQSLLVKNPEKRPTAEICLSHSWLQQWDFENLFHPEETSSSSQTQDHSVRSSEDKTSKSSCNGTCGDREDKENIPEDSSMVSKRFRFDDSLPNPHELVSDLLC

178 full-length kinases [5] = biological target: 178 full-length kinases (Homo sapiens, UniProt Q13882); conditions: PTK6, Nluc C, probe 6 at 0.5 (unit uncertain)
178 full-length kinases [6] = biological target: 178 full-length kinases (Homo sapiens, UniProt P11309); conditions: PIM1, Nluc C, probe 5 at 1 (unit uncertain)
178 full-length kinases [7] = biological target: 178 full-length kinases (Homo sapiens, UniProt Q00532); conditions: CDKL1, Nluc N, probe 1 at 0.1 (unit uncertain)
Chain of 178 full-length kinases (Homo sapiens, UniProt Q00532) (Q00532 whole entry): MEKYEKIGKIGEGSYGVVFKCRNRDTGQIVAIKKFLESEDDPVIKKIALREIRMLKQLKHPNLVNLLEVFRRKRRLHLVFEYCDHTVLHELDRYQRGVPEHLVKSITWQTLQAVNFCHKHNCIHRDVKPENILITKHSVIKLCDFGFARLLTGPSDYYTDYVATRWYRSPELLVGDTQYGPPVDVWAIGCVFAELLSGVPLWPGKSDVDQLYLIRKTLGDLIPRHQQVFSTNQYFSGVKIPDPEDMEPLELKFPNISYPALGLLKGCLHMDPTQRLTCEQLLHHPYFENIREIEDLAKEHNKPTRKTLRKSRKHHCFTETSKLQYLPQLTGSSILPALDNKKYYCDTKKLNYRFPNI

178 full-length kinases [8] = biological target: 178 full-length kinases (Homo sapiens, UniProt O75460); conditions: ERN1, Nluc C, probe 5 at 1 (unit uncertain)
Chain of 178 full-length kinases (Homo sapiens, UniProt O75460) (O75460 19-977): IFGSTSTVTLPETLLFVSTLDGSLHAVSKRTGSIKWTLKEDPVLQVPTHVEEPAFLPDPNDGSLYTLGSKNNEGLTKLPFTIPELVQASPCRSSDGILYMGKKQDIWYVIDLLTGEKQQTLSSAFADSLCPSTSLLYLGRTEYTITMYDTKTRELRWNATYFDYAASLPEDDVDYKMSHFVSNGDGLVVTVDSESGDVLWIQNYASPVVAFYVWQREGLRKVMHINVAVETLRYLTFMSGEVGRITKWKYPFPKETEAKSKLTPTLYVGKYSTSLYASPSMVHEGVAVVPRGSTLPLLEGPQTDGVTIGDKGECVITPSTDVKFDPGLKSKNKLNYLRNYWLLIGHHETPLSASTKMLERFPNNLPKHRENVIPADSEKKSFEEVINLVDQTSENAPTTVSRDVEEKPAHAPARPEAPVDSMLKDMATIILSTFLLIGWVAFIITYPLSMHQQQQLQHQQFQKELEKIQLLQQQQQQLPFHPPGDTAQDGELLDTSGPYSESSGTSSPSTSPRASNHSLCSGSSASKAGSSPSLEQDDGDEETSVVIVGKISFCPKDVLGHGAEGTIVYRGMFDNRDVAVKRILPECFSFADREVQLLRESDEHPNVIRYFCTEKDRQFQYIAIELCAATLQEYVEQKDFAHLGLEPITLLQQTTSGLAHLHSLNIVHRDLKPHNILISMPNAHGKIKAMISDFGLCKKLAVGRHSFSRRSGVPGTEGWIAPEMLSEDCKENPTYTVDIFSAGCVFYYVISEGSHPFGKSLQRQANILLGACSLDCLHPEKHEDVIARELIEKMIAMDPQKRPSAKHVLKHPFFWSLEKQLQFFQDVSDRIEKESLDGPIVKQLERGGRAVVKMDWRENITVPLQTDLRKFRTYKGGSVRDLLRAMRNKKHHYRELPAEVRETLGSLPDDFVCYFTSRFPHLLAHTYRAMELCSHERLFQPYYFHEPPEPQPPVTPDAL

178 full-length kinases [9] = biological target: 178 full-length kinases (Homo sapiens, UniProt Q9H0K1); conditions: SNF1LK2 (NP_056006), Nluc orientation N, probe 6 at 0.1 (unit uncertain)
Chain of 178 full-length kinases (Homo sapiens, UniProt Q9H0K1) (Q9H0K1 whole entry): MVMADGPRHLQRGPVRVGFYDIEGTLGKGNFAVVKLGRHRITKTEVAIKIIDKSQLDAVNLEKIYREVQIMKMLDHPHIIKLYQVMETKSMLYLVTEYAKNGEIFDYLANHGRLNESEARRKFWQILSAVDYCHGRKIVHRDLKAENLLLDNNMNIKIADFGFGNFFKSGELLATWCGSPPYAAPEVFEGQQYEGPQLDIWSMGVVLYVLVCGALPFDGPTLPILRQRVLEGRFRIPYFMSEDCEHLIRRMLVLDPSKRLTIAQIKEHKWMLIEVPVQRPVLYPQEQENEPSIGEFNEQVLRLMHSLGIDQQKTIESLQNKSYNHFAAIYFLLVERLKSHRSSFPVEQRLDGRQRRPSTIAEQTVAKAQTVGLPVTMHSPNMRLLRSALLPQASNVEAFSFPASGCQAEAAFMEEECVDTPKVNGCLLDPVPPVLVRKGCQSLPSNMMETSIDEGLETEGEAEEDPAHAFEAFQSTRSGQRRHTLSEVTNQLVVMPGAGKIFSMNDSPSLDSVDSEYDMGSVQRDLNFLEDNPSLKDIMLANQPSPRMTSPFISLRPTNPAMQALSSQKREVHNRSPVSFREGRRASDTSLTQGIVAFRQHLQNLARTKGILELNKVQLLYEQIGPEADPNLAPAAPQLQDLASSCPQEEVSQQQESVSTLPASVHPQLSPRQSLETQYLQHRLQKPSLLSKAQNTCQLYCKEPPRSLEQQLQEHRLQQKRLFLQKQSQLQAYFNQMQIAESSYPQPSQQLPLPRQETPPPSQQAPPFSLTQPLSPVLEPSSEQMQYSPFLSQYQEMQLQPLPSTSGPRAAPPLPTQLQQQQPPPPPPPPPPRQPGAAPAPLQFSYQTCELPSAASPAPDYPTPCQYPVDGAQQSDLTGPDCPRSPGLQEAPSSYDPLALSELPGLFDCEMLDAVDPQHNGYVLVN

178 full-length kinases [10] = biological target: 178 full-length kinases (Homo sapiens, UniProt P29597); conditions: TYK2 (NP_003322), Nluc orientation C, probe 5 at 1 (unit uncertain); replicate 1
178 full-length kinases [11] = biological target: 178 full-length kinases (Homo sapiens, UniProt P17612); conditions: PRKACA, Nluc C, probe 5 at 1 (unit uncertain)
178 full-length kinases [12] = biological target: 178 full-length kinases (Homo sapiens, UniProt P31751); conditions: AKT2, Nluc C, probe 5 at 1 (unit uncertain)
Chain of 178 full-length kinases (Homo sapiens, UniProt P31751) (P31751 whole entry): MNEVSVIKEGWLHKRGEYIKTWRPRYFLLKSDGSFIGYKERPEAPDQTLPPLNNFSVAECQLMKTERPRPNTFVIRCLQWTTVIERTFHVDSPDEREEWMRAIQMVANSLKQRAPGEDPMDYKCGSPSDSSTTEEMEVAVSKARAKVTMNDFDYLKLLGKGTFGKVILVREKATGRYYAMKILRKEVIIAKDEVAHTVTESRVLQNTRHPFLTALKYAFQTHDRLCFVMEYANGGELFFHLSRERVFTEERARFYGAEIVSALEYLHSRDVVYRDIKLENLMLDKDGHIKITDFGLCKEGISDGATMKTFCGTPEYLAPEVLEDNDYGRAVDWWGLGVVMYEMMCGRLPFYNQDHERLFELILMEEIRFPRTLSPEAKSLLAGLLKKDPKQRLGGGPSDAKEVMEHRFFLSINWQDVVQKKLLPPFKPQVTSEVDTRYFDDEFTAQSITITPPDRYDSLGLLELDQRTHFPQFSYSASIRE

178 full-length kinases [13] = biological target: 178 full-length kinases (Homo sapiens, UniProt P31749); conditions: AKT1, Nluc C, probe 5 at 1 (unit uncertain)
Chain of 178 full-length kinases (Homo sapiens, UniProt P31749) (P31749 whole entry): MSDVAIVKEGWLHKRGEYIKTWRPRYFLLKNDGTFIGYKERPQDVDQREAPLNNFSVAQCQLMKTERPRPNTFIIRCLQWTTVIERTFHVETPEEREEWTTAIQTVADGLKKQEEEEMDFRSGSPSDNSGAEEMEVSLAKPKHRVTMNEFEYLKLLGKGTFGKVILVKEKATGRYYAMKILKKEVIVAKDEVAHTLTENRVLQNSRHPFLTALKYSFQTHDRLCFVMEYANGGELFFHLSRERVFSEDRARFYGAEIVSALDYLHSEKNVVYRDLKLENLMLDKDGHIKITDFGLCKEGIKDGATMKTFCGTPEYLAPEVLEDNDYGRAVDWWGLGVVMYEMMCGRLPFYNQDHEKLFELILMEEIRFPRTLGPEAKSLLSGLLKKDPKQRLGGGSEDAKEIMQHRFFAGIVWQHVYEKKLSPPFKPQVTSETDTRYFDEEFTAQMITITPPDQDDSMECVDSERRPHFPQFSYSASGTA

178 full-length kinases [14] = biological target: 178 full-length kinases (Homo sapiens, UniProt Q16832); conditions: DDR2, Nluc C, probe 6 at 0.1 (unit uncertain)
178 full-length kinases [15] = biological target: 178 full-length kinases (Homo sapiens, UniProt Q02156); conditions: PRKCE, Nluc C, probe 5 at 1 (unit uncertain)
178 full-length kinases [16] = biological target: 178 full-length kinases (Homo sapiens, UniProt P10721); conditions: KIT, Nluc C, probe 6 at 0.1 (unit uncertain)
178 full-length kinases [17] = biological target: 178 full-length kinases (Homo sapiens, UniProt Q9Y463); conditions: DYRK1B, Nluc N, probe 5 at 1 (unit uncertain)
Chain of 178 full-length kinases (Homo sapiens, UniProt Q9Y463) (Q9Y463 whole entry): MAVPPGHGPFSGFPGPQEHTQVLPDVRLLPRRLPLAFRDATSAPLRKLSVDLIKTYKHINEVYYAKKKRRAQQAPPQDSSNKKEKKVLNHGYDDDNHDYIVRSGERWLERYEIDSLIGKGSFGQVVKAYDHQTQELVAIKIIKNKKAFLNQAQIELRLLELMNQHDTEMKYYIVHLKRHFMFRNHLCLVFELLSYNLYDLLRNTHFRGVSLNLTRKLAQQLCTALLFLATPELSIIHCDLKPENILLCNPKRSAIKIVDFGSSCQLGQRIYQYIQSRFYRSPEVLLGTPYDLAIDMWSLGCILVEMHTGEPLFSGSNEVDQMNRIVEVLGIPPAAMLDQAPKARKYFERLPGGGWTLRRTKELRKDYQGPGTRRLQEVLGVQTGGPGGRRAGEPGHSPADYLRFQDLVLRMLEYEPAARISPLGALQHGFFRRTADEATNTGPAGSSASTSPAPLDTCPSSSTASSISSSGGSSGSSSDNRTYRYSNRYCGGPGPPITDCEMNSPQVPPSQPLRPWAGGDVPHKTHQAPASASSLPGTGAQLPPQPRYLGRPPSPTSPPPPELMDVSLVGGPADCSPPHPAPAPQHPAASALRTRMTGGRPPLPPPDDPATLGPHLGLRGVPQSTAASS

178 full-length kinases [18] = biological target: 178 full-length kinases (Homo sapiens, UniProt Q9Y2K2); conditions: SIK3 (NP_079440), Nluc orientation N, probe 6 at 1 (unit uncertain)

C[C@@H](Oc1cc(-c2cnn(C3CCNCC3)c2)cnc1N)c1c(Cl)ccc(F)c1Cl [Crizotinib]
No Binding: Occupancy, % Replicate 1 (178 full-length kinases [1]) | Occupancy, % Replicate 2 (178 full-length kinases [1]) | Occupancy, % Replicate 1 (178 full-length kinases [2]) | Occupancy, % Replicate 2 (178 full-length kinases [2]) | Occupancy, % Replicate 2 (178 full-length kinases [3]) | Occupancy, % Replicate 1 (178 full-length kinases [4]; replicate 1) | Occupancy, % Replicate 2 (178 full-length kinases [4]; replicate 2) | Occupancy, % Replicate 2 (178 full-length kinases [5]) | Occupancy, % Replicate 1 (178 full-length kinases [6]) | Occupancy, % Replicate 1 (178 full-length kinases [7]) | Occupancy, % Replicate 2 (178 full-length kinases [7]) | Occupancy, % Replicate 1 (178 full-length kinases [8]) | Occupancy, % Replicate 2 (178 full-length kinases [8]) | Occupancy, % Replicate 1 (178 full-length kinases [9]; replicate 1) | Occupancy, % Replicate 2 (178 full-length kinases [9]; replicate 2) | Occupancy, % Replicate 1 (178 full-length kinases [10]) | Occupancy, % Replicate 1 (178 full-length kinases [11]) | Occupancy, % Replicate 2 (178 full-length kinases [11]) | Occupancy, % Replicate 1 (178 full-length kinases [12]) | Occupancy, % Replicate 2 (178 full-length kinases [12]) | Occupancy, % Replicate 1 (178 full-length kinases [13]) | Occupancy, % Replicate 2 (178 full-length kinases [13]) | Occupancy, % Replicate 1 (178 full-length kinases [14]) | Occupancy, % Replicate 1 (178 full-length kinases [15]) | Occupancy, % Replicate 2 (178 full-length kinases [15]) | Occupancy, % Replicate 1 (178 full-length kinases [16]) | Occupancy, % Replicate 2 (178 full-length kinases [16]) | Occupancy, % Replicate 1 (178 full-length kinases [17]) | Occupancy, % Replicate 2 (178 full-length kinases [17]) | Occupancy, % Replicate 1 (178 full-length kinases [18]; replicate 1) | Occupancy, % Replicate 2 (178 full-length kinases [18]; replicate 2)
